The assay has as its system Murine melanoma B16 · BL6 cells. Put plainly: Assay for apoptosis-inducing activity (TNF bioassay, crystal violet staining). It is filed as cell-based. Conditions: for potentiation of apoptosis-inducing activity: ED50 alone versus ED50 in the presence of peptide (SEQ ID NO:2) 50 µg/ml; for EC50: Mus musculus, B16-BL6, 19 h, 19 hours, Probit method, read-out: ED50 (apoptosis-inducing activity). The procedure: The potentiating effects on the apoptosis-inducing activity of chemotherapeutic agents were evaluated based on whether or not the apoptosis-inducing activity of anticancer agents of the apoptosis-inducing type would be affected by the combined use of the aforementioned synthetic peptide.
Specifically, the apoptosis-inducing activity of anticancer agents of three kinds of apoptosis-inducing type agents was compared between the presence of the peptide and the absence of the peptide. Determination of the apoptosis-inducing activity was carried out according to TNF bioassay (K. Hirano et al., J. Biochem., 105, 120, 1989). The details are provided below.
A 96-well was coated with human plasma fibronectin at a concentration of 5 µg/ml (prepared according to the method of Fukai et al., J. Biol. Chem., 266, 8807, 1991) and was subjected to blocking with bovine serum albumin (Sigma), after which it was suspended in a serum-free culture: the culture was a mixture of Dulbeccos Modified Eagle Medium and Ham F12 medium at a volume ratio of 1:1 and will be referred to as DMEM/Ham medium hereafter (Nissui Pharmaceutical Co. Ltd.). Murine melanoma B16 · BL6 cells were inoculated onto the plate at 2x10^4 cells/well. After cell adhesion and distention were confirmed by cultivating the cells at 37 °C and under 5% CO2 atmosphere for 2 hours, the culture supernatant was removed and a mixed solution comprising a chemotherapeutic agent and the peptide was added thereto. Cultivation was conducted for 19 hours. The peptide was prepared to give a final concentration of 50 µg/ml, and the chemotherapeutic agents were dissolved in DMEM/Ham medium at a variety of concentrations. As controls, only the peptide and only the chemotherapeutic agent at the same concentrations as those described were added. Cultivation was conducted for 19 hours. In Example 9 doxorubicin (abbreviated as DOX) was used; in Example 10 VCR was used; and in Example 11 AcD was used. DOX was also purchased from Sigma. After cultivation, the above mixed solution was removed and exchanged with a DMEM/HaM medium containing 10% bovine fetal serum (URH Biosciences) for further cultivation overnight. After fixing with 5% formaldehyde (Wako Pure Chemical Industries Ltd.), the cells having undergone apoptosis were removed through washing and the cells adhered to the plate were stained with a 0.5% crystal violet solution. Excessive dye was washed out with water. After lyzing the cells with 1% SDS and extracting the dye, absorbance at a wavelength of 595 nm was measured with a microplate reader (Spectra Rainbow Thermo; Wako Pure Chemical Industries Ltd.).

The mark [1] stands for this setting: chemotherapeutic agent used alone.
Where [2] appears, read: in the presence of peptide (SEQ ID NO:2) 50 µg/ml.

SMILES strings stand for the structures. Read-outs that look alike come from different tables or passages of the source. *1 amine or outer side, *2 acyl side, *3 side chain or, on linkers, in order; H or OH if unused. Where a SMILES comes first, the peptide text is derived from it. Bridges are numbered along the chain shown (N, C = ends). Roman numbers before positions name the chains, in order. [ ]: non-standard residue; d: D form. Actinocin(9to1) = Cc1c2oc3c(C)ccc(C(=O)[*:1])c3nc-2c(C(=O)[*:2])c(N)c1=O; NMeV = CN[C@H](C(=O)O)C(C)C; Sar = CNCC(=O)O

For the compound `CC[C@]1(O)C[C@H]2CN(CCc3c([nH]c4ccccc34)[C@@](C(=O)OC)(c3cc4c(cc3OC)N(C=O)[C@H]3[C@@](O)(C(=O)OC)[C@H](OC(C)=O)[C@]5(CC)C=CCN6CC[C@]43[C@@H]65)C2)C1` [VCR, vincristin], the “potentiation of apoptosis-inducing activity” value (“potentiation” for short) was ~27,000 fold. Also, the EC50 under setting [1] amounted to 111 µg/mL. For the same compound, the EC50 under setting [2] came to 0.0036 µg/mL.

Turning to `Cc1c2oc3c(C)ccc(C(=O)N[C@@H]4C(=O)N[C@H](C(C)C)C(=O)N5CCC[C@H]5C(=O)N(C)CC(=O)N(C)[C@@H](C(C)C)C(=O)O[C@@H]4C)c3nc-2c(C(=O)N[C@@H]2C(=O)N[C@H](C(C)C)C(=O)N3CCC[C@H]3C(=O)N(C)CC(=O)N(C)[C@@H](C(C)C)C(=O)O[C@@H]2C)c(N)c1=O` [AcD, actinomycin D] (I: T[dV]P[Sar][NMeV] / II: T[dV]P[Sar][NMeV]; ester I:1-I:C, II:1-II:C; linker I:N-II:N via Actinocin(9to1)), the “potentiation” value is ~40,000 fold. The EC50 under setting [1] turned out to be 763 nM. In addition, under setting [2], the EC50 came out at 0.0145 nM.

For `COc1cccc2c1C(=O)c1c(O)c3c(c(O)c1C2=O)C[C@@](O)(C(=O)CO)C[C@@H]3O[C@H]1C[C@H](N)[C@H](O)[C@H](C)O1` [DOX, doxorubicin], the “potentiation” value is about 7.6 fold. In addition, the EC50 under setting [1] was 0.293 µg/mL. The EC50 under setting [2] was determined as 0.039 µg/mL.
